In patent publication US8697145B2, “Substances having body mass redistribution properties” (Horizon Science Pty. Ltd., priority 2005, dated 2014):
Each block holds one compound with its values, some of them ahead of it.

Key:
[1] = target: α-glucosidase; assay: α-Glucosidase inhibition assay; format: biochemical
Procedure: α-Glucosidase: Molasses powder sample was solubilized in water prior to use in this assay. Fucoidan was included as a positive control, and was also solubilized in water.
Glucosidase enzyme was solubilized in acetate buffer (50 mM, pH 4.5) at a concentration of 0.7 mg/mL. This provided a final concentration of 0.2 U/mL. To a 96-well plate, 50 μL of enzyme was added to each well. A corresponding set of wells was also included, in which acetate buffer was added instead of enzyme. Sample/controls were then added to the wells (5 μL), in triplicate, followed by the substrate 4-Nitrophenyl-α-D-glucopyranoside (final concentration 2 mM). The plate was covered, shaken and then incubated at 37° C. for 30 minutes. The reaction was stopped with the addition of 0.2 M Na2CO3 (100 μL/well). Absorbance was measured at 405 nm, using a Victor^2 plate reader.
The absorbance of the wells containing sample, substrate, and buffer were subtracted from the corresponding wells containing the glucosidase enzyme and the percent inhibition by the samples was calculated compared to the solvent controls.

[2] = test system: rats; settings: treated rats (Zorad et al. 1995); cited from earlier work
[3] = test system: Sprague Dawley rats; assay: Body mass distribution of rats on high fat diet with tea treatments (DEXA); format: in vivo; settings: at 11 and 18 weeks, vs water control
Source text: Animals and treatments: Male Sprague Dawley rats (n=48) were purchased from the Animal Resource Centre (Canning Vale, WA) at 3 weeks of age. Animals were allowed to acclimate for 1 week on Purina rat chow and water. From 4 weeks of age, all animals were provided with a semi-synthetic, high fat diet (15% fat, Table 6) (Specialty Feeds, Glen Forrest, WA) and administered one of four fluid treatments: Green Tea, Black Tea, Epigallocatechin Gallate (EGCG) or water. Tea and tea extracts were given as 100% of their fluid intake. Rats were maintained on the high fat diet and tea treatment until week 29. Food and fluid intakes were measured daily and body weights recorded weekly.
Green and Black tea: Green and Black tea bags (Dilmah Natural Green Tea™ and Dilmah Black Tea™) were purchased from a local retail outlet. Ten tea bags (approximately 2 g tea leaves/bag) were steeped in 1 liter of boiling tap water in a covered container for 3 minutes. Tea bags were then expelled of excess tea and the tea preparations made up to a 2 liter volume with cold tap water. This approximated to 1 tea bag per 200 ml of water. […]
Dual Energy X-ray Absorptiometry (DEXA): Body composition was determined by dual energy x-ray absorptiometry using a Hologic QDR-4000/W Absorptiometer. […] Fat, lean and total mass was measured, along with the percentage fat ratio and bone mineral content. […]

IC50 (α-glucosidase) [1]: 14 mg/L
% Inhibition of α-glucosidase ([1]; 4.7 μg/mL): 5.7 ± 3.1%
% Inhibition of α-glucosidase ([1]; 9.4 μg/mL): 19.3 ± 2.7%
% Inhibition of α-glucosidase ([1]; 18.8 μg/mL): 73.5 ± 7.5%
% Inhibition of α-glucosidase ([1]; 37.5 μg/mL): 97.4 ± 5.9%
Compound: Fucoidan

Compound: CCCCc1nc(Cl)c(CO)n1Cc1ccc(-c2ccccc2-c2nn[nH]n2)cc1 [losartan]
adipocyte size [2]: reduction

Compound: O=C(O[C@@H]1Cc2c(O)cc(O)cc2O[C@@H]1c1cc(O)c(O)c(O)c1)c1cc(O)c(O)c(O)c1 [EGCG, (−)-epigallocatechin-3-gallate]
grams of lean mass [3]: significantly higher
